Source: ChEMBL document CHEMBL4483862, “Open-source discovery of chemical leads for next-generation chemoprotective antimalarials” (2018)
pIC50: −log10 of the molar value.

System: Plasmodium berghei
Experiment: Luciferase/luciferin-expressing antifolate-resistant parasites were used to infect a culture of HepG2 cells that were pre-incubated with compounds. Infected hepatocytes emit light due to the luciferase reaction. Assay results are presented as the percent inhibition of light emission compared to control. […]
Assay type: functional
Details: sporozoite; for IC90: read-out: LUCIFERASE INFECTION ASSAY - IC90
[1] = read-out: LUCIFERASE INFECTION ASSAY - IC50

| Compound | pIC50 [1] | IC90 [µM] | also measured |
| --- | --- | --- | --- |
| COc1cc(Nc2nccc3nc(-c4ccc5c(c4)OCCO5)[nH]c23)cc(OC)c1OC | 6.31 | 1.67 | – |
| COc1ccc2c(c1)c(-c1csc(NC(=O)c3ccccn3)n1)c(C)n2C | – | > 8.72 | pIC50 (PBLUC_HILL_SLOPE 1.89, PBLUC_R_SQUARED 0.766, read-out: LUCIFERASE INFECTION ASSAY - IC50): < 5.06 |
| N#CC(/N=C\c1ccc(Cl)cc1)=C(\C#N)NC(=O)Nc1ccc(OC(F)(F)F)cc1 | – | 2.75 | pIC50 (HEPG2TOX_HILL_SLOPE 2.54, HEPG2TOX_R_SQUARED 0.983, PBLUC_HILL_SLOPE 13.2, PBLUC_R_SQUARED 0.605, read-out: LUCIFERASE INFECTION ASSAY - IC50): 5.63 |
| Cc1cc2c(cc1C)C(NC(C)c1ccccc1)=NC(C)(C)C2 (centres undefined) | – | 4.29 | pIC50 (PBLUC_HILL_SLOPE 13.3, PBLUC_R_SQUARED 0.718, read-out: LUCIFERASE INFECTION ASSAY - IC50): 5.44 |
| CCOC(=O)c1c(S(=O)(=O)N2CCN(Cc3ccccc3)CC2)c(-c2ccccc2)n(-c2ccccc2)c1C | – | > 6.07 | pIC50 (FFLUC_HILL_SLOPE 3.32, FFLUC_R_SQUARED 0.581, read-out: LUCIFERASE INFECTION ASSAY - IC50): < 5.22 |
| CC(=O)NC(C)c1ccc(C2=NNC(=Nc3cccc(Cl)c3C)SC2)cc1 (centres undefined) | < 5.00 | > 10 | – |
| CN1CCN(c2ccc(-c3cn4c(-c5ccc6ncccc6c5)cnc4cn3)cc2)CC1 | – | 7.74 | pIC50 (HEPG2TOX_HILL_SLOPE 17, HEPG2TOX_R_SQUARED 0.823, PBLUC_HILL_SLOPE 14.3, PBLUC_R_SQUARED 0.731, read-out: LUCIFERASE INFECTION ASSAY - IC50): 5.18 |
| N=C(N)N/N=C/c1ccc(Cl)cc1Cl | – | 5.8 | pIC50 (HEPG2TOX_HILL_SLOPE 3.43, HEPG2TOX_R_SQUARED 0.626, PBLUC_HILL_SLOPE 2.34, PBLUC_R_SQUARED 0.812, read-out: LUCIFERASE INFECTION ASSAY - IC50): 5.64 |
| COc1ccccc1-c1nc(CCl)cs1 | < 5.00 | > 10 | – |
| Cc1ccnc(NC(=O)c2ccc(C3SCCCS3)cc2)c1 | – | 1.57 | pIC50 (FFLUC_HILL_SLOPE 0.47, FFLUC_R_SQUARED 0.912, PBLUC_HILL_SLOPE 0.485, PBLUC_R_SQUARED 0.898, read-out: LUCIFERASE INFECTION ASSAY - IC50): 7.77 |
| CCOc1ccc(OS(=O)(=O)c2ccc(-n3ncc(Cl)c(Cl)c3=O)cc2)cc1 | – | 3.34 | pIC50 (FFLUC_HILL_SLOPE 1.43, FFLUC_R_SQUARED 0.409, HEPG2TOX_HILL_SLOPE 3.88, HEPG2TOX_R_SQUARED 0.973, PBLUC_HILL_SLOPE 4.23, PBLUC_R_SQUARED 0.659, read-out: LUCIFERASE INFECTION ASSAY - IC50): 5.70 |
| O=C(NCC#Cc1cccc(C(F)(F)F)c1)c1[nH]nc2ccccc12 | – | > 10 | pIC50 (FFLUC_HILL_SLOPE 1.72, FFLUC_R_SQUARED 0.47, read-out: LUCIFERASE INFECTION ASSAY - IC50): < 5.00 |
| Oc1ccc(-c2cnc3cnc(-c4ccccc4Cl)cn23)cc1 | – | 4.1 | pIC50 (HEPG2TOX_HILL_SLOPE 4.19, HEPG2TOX_R_SQUARED 0.981, PBLUC_HILL_SLOPE 3.43, PBLUC_R_SQUARED 0.853, read-out: LUCIFERASE INFECTION ASSAY - IC50): 5.67 |
| Cc1ccc(C)c(OCC(O)CN2CCN(Cc3nc(-c4ccc(Cl)cc4)no3)CC2)c1 (centres undefined) | – | 7.62 | pIC50 (HEPG2TOX_HILL_SLOPE 2.12, HEPG2TOX_R_SQUARED 0.919, PBLUC_HILL_SLOPE 1.87, PBLUC_R_SQUARED 0.881, read-out: LUCIFERASE INFECTION ASSAY - IC50): 5.63 |
| Cc1ccc(C(=O)OC(C)C(=O)N2CCCC2)cc1S(=O)(=O)N1CCCCC1 (centres undefined) | – | 1.37 | pIC50 (PBLUC_HILL_SLOPE 7.98, PBLUC_R_SQUARED 0.937, read-out: LUCIFERASE INFECTION ASSAY - IC50): 5.98 |
| CN(CC(=O)Nc1ccc(Cl)c(C(F)(F)F)c1)Cc1ccc(O)c2ncccc12 | 7.19 | 0.191 | – |
| O=C(NC(=S)NNc1ncc(C(F)(F)F)cc1Cl)c1cccs1 | – | 1.1 | pIC50 (FFLUC_HILL_SLOPE 14.4, FFLUC_R_SQUARED 0.344, HEPG2TOX_HILL_SLOPE 0.95, HEPG2TOX_R_SQUARED 0.974, PBLUC_HILL_SLOPE 2.04, PBLUC_R_SQUARED 0.707, read-out: LUCIFERASE INFECTION ASSAY - IC50): 6.43 |
| COc1cccc(-c2nc3ccnc(NCCc4ccccc4)c3[nH]2)c1 | – | 7.63 | pIC50 (PBLUC_HILL_SLOPE 2.45, PBLUC_R_SQUARED 0.513, read-out: LUCIFERASE INFECTION ASSAY - IC50): 5.51 |
| OCc1ccc(-c2cnc3ccc(-c4cncnc4)nn23)cc1 | – | 3.81 | pIC50 (HEPG2TOX_HILL_SLOPE 10.3, HEPG2TOX_R_SQUARED 0.526, PBLUC_HILL_SLOPE 13.6, PBLUC_R_SQUARED 0.613, read-out: LUCIFERASE INFECTION ASSAY - IC50): 5.49 |
| Cc1c(/C=N/NC(=O)c2ccccc2)c(Cl)n(C)c(=O)c1C#N | < 5.00 | > 10 | – |
| COc1ccc(-c2cnc3cnc(-c4ccc(C(=O)NCCO)cc4)cn23)cc1 | – | 4.08 | pIC50 (PBLUC_HILL_SLOPE 8.42, PBLUC_R_SQUARED 0.632, read-out: LUCIFERASE INFECTION ASSAY - IC50): 5.50 |

| Compound | pIC50 [1] | IC90 [µM] | also measured |
| --- | --- | --- | --- |
| Cc1ccc(/C=C/C(=O)NC2CCCc3ccccc32)o1 (centres undefined) | – | > 10 | pIC50 (FFLUC_HILL_SLOPE 16.2, FFLUC_R_SQUARED 0.0896, read-out: LUCIFERASE INFECTION ASSAY - IC50): < 5.00 |
| Cc1cnc(NC(=O)CSCc2cccs2)s1 | < 5.00 | > 10 | – |
| CN(C)CCCNc1cc(N(C)C)c(N)c2c1C(=O)c1ccccc1C2=O | – | > 9.01 | pIC50 (PBLUC_HILL_SLOPE 0.553, PBLUC_R_SQUARED 0.182, read-out: LUCIFERASE INFECTION ASSAY - IC50): < 5.05 |
| O=C1C(Cl)=C(OC(CO)CO)C(=O)c2ccccc21 | – | 1.49 | pIC50 (HEPG2TOX_HILL_SLOPE 4.19, HEPG2TOX_R_SQUARED 0.978, PBLUC_HILL_SLOPE 3.44, PBLUC_R_SQUARED 0.808, read-out: LUCIFERASE INFECTION ASSAY - IC50): 6.11 |
| CCOc1ccc(C2NC(=O)NC(C)=C2C(=O)OCC2CCCO2)cc1OC (centres undefined) | < 5.07 | > 8.45 | – |
| Cc1ccc2nc(SCC(=O)c3cc(C)n(-c4ccc5c(c4)OCCO5)c3C)[nH]c2c1 | – | > 10 | pIC50 (FFLUC_HILL_SLOPE 12.9, FFLUC_R_SQUARED 0.345, HEPG2TOX_HILL_SLOPE 0.403, HEPG2TOX_R_SQUARED 0.877, read-out: LUCIFERASE INFECTION ASSAY - IC50): < 5.00 |
| CC(C)(C)c1cc2nc(C(F)(F)F)cc(N/N=C/c3ccccc3)n2n1 | – | > 9.13 | pIC50 (PBLUC_HILL_SLOPE 15.2, PBLUC_R_SQUARED 0.244, read-out: LUCIFERASE INFECTION ASSAY - IC50): 5.08 |
| Oc1c(Cl)cc(Cl)cc1/C=N/NC(=S)NC1CCCC1 | – | 3.83 | pIC50 (HEPG2TOX_HILL_SLOPE 9.72, HEPG2TOX_R_SQUARED 0.599, PBLUC_HILL_SLOPE 20.7, PBLUC_R_SQUARED 0.654, read-out: LUCIFERASE INFECTION ASSAY - IC50): 5.46 |
| COCOc1ccc(-c2cc(-c3cc(C)c(O)c(C)c3)cnc2N)cc1 | 5.35 | 6.77 | – |
| Nn1c(SCC(=O)c2c[nH]c3ccccc23)nnc1C(F)(F)F | – | 8.78 | pIC50 (HEPG2TOX_HILL_SLOPE 1.03, HEPG2TOX_R_SQUARED 0.976, PBLUC_HILL_SLOPE 0.599, PBLUC_R_SQUARED 0.712, read-out: LUCIFERASE INFECTION ASSAY - IC50): 6.65 |
| CCCn1c(NC(=O)c2ccc3ncsc3c2)nc2ccccc21 | 5.07 | 9.62 | – |
| CCOc1ncccc1C(=O)Nc1ccc(NC(=O)C2CC2)cc1C(F)(F)F | < 5.00 | > 10 | – |
| N=C(NOC(=O)Nc1cccc(C(F)(F)F)c1)c1ccc(Oc2c(Cl)cncc2Cl)cc1 | – | > 6.8 | pIC50 (HEPG2TOX_HILL_SLOPE 7.08, HEPG2TOX_R_SQUARED 0.63, PBLUC_HILL_SLOPE 1.44, PBLUC_R_SQUARED 0.448, read-out: LUCIFERASE INFECTION ASSAY - IC50): 5.31 |
| OCCNCc1cc(Cl)ccc1OCc1ccc(Cl)cc1Cl | – | > 8.31 | pIC50 (HEPG2TOX_HILL_SLOPE 0.0281, HEPG2TOX_R_SQUARED 0.0269, read-out: LUCIFERASE INFECTION ASSAY - IC50): < 5.08 |
| c1ccc(-c2cc(-c3ccc(NC4=NCCCS4)cc3)nc3ccccc23)cc1 | – | 9.46 | pIC50 (PBLUC_HILL_SLOPE 28.5, PBLUC_R_SQUARED 0.262, read-out: LUCIFERASE INFECTION ASSAY - IC50): 5.06 |
| COc1ccccc1-c1cc(-c2ccccc2N(C)C)cnc1N | – | > 10.3 | pIC50 (HEPG2TOX_HILL_SLOPE 3.39, HEPG2TOX_R_SQUARED 0.524, PBLUC_HILL_SLOPE 1.95, PBLUC_R_SQUARED 0.212, read-out: LUCIFERASE INFECTION ASSAY - IC50): 5.26 |
| CCCC(/N=C/c1cc(Cl)ccc1O)/N=C/c1cc(Cl)ccc1O | < 5.04 | > 9.03 | – |
| COc1ccc(/C=C(/C(=O)c2cccs2)N2C=CC=CC2=C(C#N)C#N)cc1 | < 5.00 | > 10 | – |
| C=CCOc1ccccc1C(=O)Nc1nc2c(s1)CN(C(=O)OC(C)(C)C)CC2 | – | 4.73 | pIC50 (HEPG2TOX_HILL_SLOPE 3.68, HEPG2TOX_R_SQUARED 0.942, PBLUC_HILL_SLOPE 10.6, PBLUC_R_SQUARED 0.381, read-out: LUCIFERASE INFECTION ASSAY - IC50): 5.42 |
| Cc1cc(C)c(CSC2=NCCCN2C2CCCCC2)c(C)c1 | < 5.05 | > 8.99 | – |
| CN(/N=C/c1cc(Cl)cc(Cl)c1O)C(=S)NC(C)(C)C | < 5.01 | > 9.87 | – |
